The source of these data is ChEMBL document CHEMBL4477232, “Synthesis and evaluation of novel 1,2,3-triazole-based acetylcholinesterase inhibitors with neuroprotective activity” (Bioorg Med Chem Lett, 2016).

pIC50: −log10 of the molar value. Calls of active or inactive are those of the source. The rule behind the calls is not given here.

One data set concerns the target Acetylcholinesterase (Electrophorus electricus, UniProt O42275). The experiment in a line: Inhibition of electric eel AChE preincubated for 6 mins followed by addition of acetylthiocholine iodide by Ellman's method. (DTNB colorimetry detects thiols as they appear.)
A short description of data set [1]: Selectivity ratio of IC50 for equine serum BuChE to IC50 for electric eel AChE.
A further data set concerns the target Cholinesterase (Equus caballus, UniProt P81908). The experiment in a line: Inhibition of equine serum BuChE preincubated for 6 mins followed by addition of S-butyrylthiocholine iodide by Ellman's method.
Data set [2] deals with SH-SY5Y. The experiment in a line: Neuroprotective activity against amyloid beta (25 to 35 residues)-induced cell damage in human SH-SY5Y cells assessed as cell viability at 10 uM preincubated for 2 hrs followed by amyloid beta (25 to 35 residues) addition measured after 24 hrs by MTT assay (reference value: 62.3 %). Type of data set: functional. To be noted: for viability at 10 µM: read-out: Activity. (Tetrazolium dyes change colour on reduction, which living cells bring about.)

The test system of a further data set is HaCaT. As to the kind of experiment: Cytotoxicity against human HaCaT assessed as cell viability upto 400 uM after 24 hrs by MTT assay relative to control. In kind it is cell-based.
The test system of data set [3] is SH-SY5Y. As to the kind of experiment: Neuroprotective activity against amyloid beta (25 to 35 residues)-induced cell damage in human SH-SY5Y cells assessed as recovery of cell viability at 10 uM preincubated for 2 hrs followed by amyloid beta (25 to 35 residues) addition measured after 24 hrs by MTT assay. Type of data set: functional.
For the next data set, the system named is NIH3T3. The experiment in a line: Cytotoxicity against mouse NIH/3T3 assessed as cell viability upto 400 uM after 24 hrs by MTT assay relative to control. In kind it is cell-based. To be noted: nih3t3, 24 h.
Data set [4] has as its system SH-SY5Y. As to the kind of experiment: Neuroprotective activity against amyloid beta (25 to 35 residues)-induced cell damage in human SH-SY5Y cells assessed as cell viability at 1 uM preincubated for 2 hrs followed by amyloid beta (25 to 35 residues) addition measured after 24 hrs by MTT assay (reference value: 62.3 %). In kind it is functional. As to conditions: for viability at 1 µM: read-out: Activity.

The test system of data set [5] is SH-SY5Y. The experiment in a line: Neuroprotective activity against amyloid beta (25 to 35 residues)-induced cell damage in human SH-SY5Y cells assessed as recovery of cell viability at 1 uM preincubated for 2 hrs followed by amyloid beta (25 to 35 residues) addition measured after 24 hrs by MTT assay. In kind it is functional.

Chain of Cholinesterase (P81908 whole entry, the tested form may be a part): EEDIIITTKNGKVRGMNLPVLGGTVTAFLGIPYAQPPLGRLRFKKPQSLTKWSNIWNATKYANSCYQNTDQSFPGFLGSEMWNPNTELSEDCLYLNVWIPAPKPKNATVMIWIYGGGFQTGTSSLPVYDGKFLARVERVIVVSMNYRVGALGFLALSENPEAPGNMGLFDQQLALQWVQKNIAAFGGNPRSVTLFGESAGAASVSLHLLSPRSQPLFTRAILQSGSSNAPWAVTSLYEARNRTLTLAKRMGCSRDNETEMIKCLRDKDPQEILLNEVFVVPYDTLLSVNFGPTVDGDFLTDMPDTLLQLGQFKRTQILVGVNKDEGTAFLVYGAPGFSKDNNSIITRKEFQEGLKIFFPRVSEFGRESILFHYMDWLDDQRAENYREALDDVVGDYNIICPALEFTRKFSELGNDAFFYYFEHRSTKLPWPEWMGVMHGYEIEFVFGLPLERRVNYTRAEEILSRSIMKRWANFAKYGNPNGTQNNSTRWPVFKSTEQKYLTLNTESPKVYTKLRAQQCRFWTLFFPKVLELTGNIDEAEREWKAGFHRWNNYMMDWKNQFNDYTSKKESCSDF
Chain of Acetylcholinesterase (O42275 whole entry): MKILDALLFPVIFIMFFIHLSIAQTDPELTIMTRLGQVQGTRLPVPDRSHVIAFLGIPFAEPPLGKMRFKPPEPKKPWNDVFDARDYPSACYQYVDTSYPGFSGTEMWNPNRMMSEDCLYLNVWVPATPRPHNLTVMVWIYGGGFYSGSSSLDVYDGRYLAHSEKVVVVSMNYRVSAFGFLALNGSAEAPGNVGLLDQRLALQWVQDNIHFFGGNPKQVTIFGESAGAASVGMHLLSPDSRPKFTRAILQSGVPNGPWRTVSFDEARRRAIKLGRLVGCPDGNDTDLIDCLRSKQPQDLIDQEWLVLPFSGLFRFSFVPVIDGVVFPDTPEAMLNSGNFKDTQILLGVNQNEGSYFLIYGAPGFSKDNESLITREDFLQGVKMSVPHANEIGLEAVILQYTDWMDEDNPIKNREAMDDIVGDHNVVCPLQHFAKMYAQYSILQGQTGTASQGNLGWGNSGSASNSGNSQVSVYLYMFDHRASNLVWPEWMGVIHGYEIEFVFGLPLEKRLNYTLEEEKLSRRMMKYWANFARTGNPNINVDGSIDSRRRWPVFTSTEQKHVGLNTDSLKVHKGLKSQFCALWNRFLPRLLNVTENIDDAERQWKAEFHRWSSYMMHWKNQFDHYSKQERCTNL

For orientation: pIC50 means the IC50 on a negative log10 scale, so that one unit is a factor of ten. Regarding `Cc1ccc(-c2cn(Cc3cccc(Cl)c3)nn2)cc1C(=O)NCCN1CCOCC1`, the pIC50 was 4.49 against Acetylcholinesterase and 4.44 on Cholinesterase. Further, the Ratio IC50 in data set [1] was 1.1.

On to `Cc1ccc(-c2cn(Cc3ccc4ccccc4c3)nn2)cc1C(=O)NCCN1CCOCC1`, for which the viability at 10 µM in the data set with SH-SY5Y [2] is 96.5%. For the same compound, the pIC50 is 5.14 at Acetylcholinesterase and 4.04 against Cholinesterase. The Activity entry with HaCaT is “Non-Toxic”; in the data set on SH-SY5Y [3] it was 34.2%; with NIH3T3, “Non-Toxic”; in the data set with SH-SY5Y [5], 15.6%. Moreover, the Ratio IC50 in data set [1] stood at 12.6. Besides, in the data set on SH-SY5Y [4], the viability at 1 µM was found to be 77.9%.

For `Cc1ccc(-c2cn(Cc3ccccc3C(F)(F)F)nn2)cc1C(=O)NCCN1CCOCC1`, the results for the pIC50 against Acetylcholinesterase and against Cholinesterase were 4.47 and 4.35, respectively. In addition, the Ratio IC50 in data set [1] worked out at 1.3.

For the compound `Cc1ccc(-c2cn(Cc3ccc(F)cc3)nn2)cc1C(=O)NCCN1CCOCC1`, the values for the pIC50 against Acetylcholinesterase and against Cholinesterase were 4.67 and 4.36, respectively. In addition, the Ratio IC50 in [1] amounted to 2.1.

With `Cc1ccc(Cn2cc(-c3ccc(C)c(C(=O)NCCN4CCOCC4)c3)nn2)cc1`, the pIC50 at Acetylcholinesterase was 4.22; at Cholinesterase it was 4.08. For the same compound, the Ratio IC50 in [1] is 1.4.

As to `Cc1ccc(-c2cn(Cc3ccc(C(F)(F)F)cc3)nn2)cc1C(=O)NCCN1CCOCC1`, in the data set with SH-SY5Y [2], the viability at 10 µM is 85.2%. In addition, on Acetylcholinesterase, the pIC50 is 4.56. Also, the Activity in the data set on SH-SY5Y [3] is 22.9%. Also, the result with SH-SY5Y [4] and in the data set on SH-SY5Y [5] was inactive.

`COC(=O)/C=C/c1ccc(Cn2cc(-c3ccc(C)c(C(=O)NCCN4CCOCC4)c3)nn2)cc1`: the pIC50 on Acetylcholinesterase is 4.35; on Cholinesterase it was 4.04. The Ratio IC50 in data set [1] is 2.

As to `O=C(O[C@@H]1Cc2c(O)cc(O)cc2O[C@@H]1c1cc(O)c(O)c(O)c1)c1cc(O)c(O)c(O)c1` [EPIGALOCATECHIN GALLATE], in the data set with SH-SY5Y [2], the viability at 10 µM was 95.7%. In the data set with SH-SY5Y [3], the Activity worked out at 33.4%.

For the compound `Cc1ccc(-c2cn(Cc3cccc4ccccc34)nn2)cc1C(=O)NCCN1CCOCC1`, the pIC50 at Acetylcholinesterase is 4.34; on Cholinesterase, 4.14. The Ratio IC50 in data set [1] worked out at 1.58.

As to `Cc1cc(F)ccc1Cn1cc(-c2ccc(C)c(C(=O)NCCN3CCOCC3)c2)nn1`, the pIC50 is 4.43 against Acetylcholinesterase and 4.21 at Cholinesterase. The Ratio IC50 in data set [1] is 1.6.

Consider `Cc1ccc(-c2cn(Cc3ccc(F)cc3Br)nn2)cc1C(=O)NCCN1CCOCC1`, for which the negative-log IC50 (pIC50) on Acetylcholinesterase is 4.50; against Cholinesterase, 4.15. Further, the Ratio IC50 in data set [1] is 2.3.

As for `COC(=O)c1ccc(Cn2cc(-c3ccc(C)c(C(=O)NCCN4CCOCC4)c3)nn2)cc1`, the pIC50 at Acetylcholinesterase was 4.42; at Cholinesterase, 4.17. Besides, the Ratio IC50 in data set [1] is 1.8.

In the case of `Cc1ccc(-c2cn(C)nn2)cc1C(=O)NCCN1CCOCC1`, the pIC50 is 4.34 against Acetylcholinesterase and 4.17 at Cholinesterase. Moreover, the Ratio IC50 in data set [1] was determined as 1.5.

Take `Cc1ccc(-c2cn(Cc3ccc(F)cc3F)nn2)cc1C(=O)NCCN1CCOCC1`: the negative logarithm of the IC50 (pIC50) on Acetylcholinesterase was 4.61; on Cholinesterase it was 4.05. In addition, the Ratio IC50 in data set [1] was determined as 3.7.

For `Cc1ccc(-c2cn(Cc3ccccc3F)nn2)cc1C(=O)NCCN1CCOCC1`, the pIC50 against Acetylcholinesterase is 4.41; against Cholinesterase, 4.33. Also, the Ratio IC50 in [1] turned out to be 2.

Turning to `Cc1ccc(-c2cn(Cc3ccc(F)cc3Cl)nn2)cc1C(=O)NCCN1CCOCC1`, the outcome in the data set with SH-SY5Y [2] and with SH-SY5Y [3] was inactive. In addition, the values for the negative logarithm of the IC50 (pIC50) on Acetylcholinesterase and at Cholinesterase were 4.98 and 4.16, respectively. In [1], the Ratio IC50 stood at 6.6.

For the compound `Cc1cc(C)cc(Cn2cc(-c3ccc(C)c(C(=O)NCCN4CCOCC4)c3)nn2)c1`, the pIC50 is 4.19 against Acetylcholinesterase and 4.25 against Cholinesterase. The Ratio IC50 in data set [1] came out at 0.9.

`Cc1ccc(-c2cn(Cc3ccc(F)c([N+](=O)[O-])c3)nn2)cc1C(=O)NCCN1CCOCC1`: the pIC50 against Acetylcholinesterase is 4.52; against Cholinesterase, 4.46. The Ratio IC50 in data set [1] is 1.2.

`Cc1ccc(-c2cn(Cc3cccc(Br)c3)nn2)cc1C(=O)NCCN1CCOCC1`: the pIC50 was 4.55 at Acetylcholinesterase and 4.39 against Cholinesterase. The Ratio IC50 in data set [1] worked out at 2.

`Cc1ccc(-c2cn(Cc3ccc(OC(F)(F)F)cc3)nn2)cc1C(=O)NCCN1CCOCC1`: the figures for the pIC50 against Acetylcholinesterase and at Cholinesterase were 4.52 and 4.22, respectively. The Ratio IC50 in data set [1] stood at 2.

On to `Cc1ccc(-c2cn(Cc3ccc(C#N)cc3)nn2)cc1C(=O)NCCN1CCOCC1`, for which the viability at 10 µM in the data set with SH-SY5Y [2] was determined as 78.9%. For the same compound, the pIC50 was 4.92 against Acetylcholinesterase and 4.03 on Cholinesterase. Further, the results for the Activity entry in the data set with HaCaT, in the data set on SH-SY5Y [3] and in the data set with NIH3T3 were “Non-Toxic”, 16.6% and “Non-Toxic”, respectively. In addition, the Ratio IC50 in data set [1] is 7.6. Also, the result with SH-SY5Y [4] and with SH-SY5Y [5] was inactive.

With `Cc1ccc(-c2cn(Cc3ccc(S(N)(=O)=O)cc3)nn2)cc1C(=O)NCCN1CCOCC1`, the figures for the pIC50 against Acetylcholinesterase and at Cholinesterase were 4.52 and 4.34, respectively. Further, the Ratio IC50 in data set [1] was found to be 1.5.

With `C#Cc1ccc(C)c(C(=O)NCCN2CCOCC2)c1`, the negative logarithm of the IC50 (pIC50) against Acetylcholinesterase was less than 4.00.

As to `Cc1ccc(-c2cn(Cc3ccccc3Br)nn2)cc1C(=O)NCCN1CCOCC1`, the pIC50 against Acetylcholinesterase is 4.45; against Cholinesterase, 4.10. Further, in [1], the Ratio IC50 was 2.2.

Take `Cc1ccc(-c2cn(Cc3cccc(F)c3)nn2)cc1C(=O)NCCN1CCOCC1`: the pIC50 against Acetylcholinesterase is 4.52; at Cholinesterase, 4.22. Moreover, the Ratio IC50 in data set [1] came out at 1.2.

As to `Cc1ccc(-c2cn(Cc3ccccc3Cl)nn2)cc1C(=O)NCCN1CCOCC1`, the pIC50 against Acetylcholinesterase is 4.50; on Cholinesterase, 4.46. The Ratio IC50 in data set [1] stood at 1.1.

As for `Cc1ccc(-c2cn(Cc3ccc(F)c(F)c3)nn2)cc1C(=O)NCCN1CCOCC1`, the viability at 10 µM with SH-SY5Y [2] is 89.4%. In addition, the pIC50 on Acetylcholinesterase was 4.81; on Cholinesterase, 4.02. The Activity entry in the data set on HaCaT is reported as “Non-Toxic”; in the data set with SH-SY5Y [3] it was 27.1%; with NIH3T3, “Non-Toxic”; in the data set with SH-SY5Y [5], 8%. Also, in data set [1], the Ratio IC50 worked out at 6.2. The viability at 1 µM in the data set on SH-SY5Y [4] came to 70.3%.

Turning to `COc1ccc(Br)c(Cn2cc(-c3ccc(C)c(C(=O)NCCN4CCOCC4)c3)nn2)c1`, the pIC50 on Acetylcholinesterase was 4.39; against Cholinesterase, 4.29. For the same compound, the Ratio IC50 in [1] was determined as 1.2.

For `Cc1ccc(-c2cn(Cc3ccc([N+](=O)[O-])cc3)nn2)cc1C(=O)NCCN1CCOCC1`, the pIC50 is 4.69 at Acetylcholinesterase and 4.22 on Cholinesterase. In addition, the Ratio IC50 in data set [1] was 2.9.

As to `Cc1ccc(-c2cn(Cc3ccc(Br)cc3)nn2)cc1C(=O)NCCN1CCOCC1`, the figures for the pIC50 against Acetylcholinesterase and at Cholinesterase were 4.69 and 4.34, respectively. For the same compound, the Ratio IC50 in [1] is 2.2.
